In one assay the test system is primary human CAPSCs. The assay can be described thus: Lipid droplet accumulation assay (BODIPY 493/503). Format: cell-based. The conditions noted are these: 100 nM Cal, 48 h; samples responding / samples tested. On the procedure: Primary human CAPSCs were seeded onto glass coverslips. After overnight attachment, cells were treated with vehicle (DMSO) or 100 nM calcipotriol for 48 h. Media was aspirated, cells were washed twice with PBS (Gibco) and fixed in 10% buffered formalin at room temperature for 15 minutes. Fixative was removed and cells were washed three times with PBS. Cells were then stained with 1 μg/ml 4,4-Difluoro-1,3,5,7,8-Pentamethyl-4-Bora-3a,4a-Diaza-s-Indacene (BODIPY 493/503, Molecular Probes) for 1 h at room temperature, protected from light. Dye was removed and cells were washed three times with PBS, then mounted using Vectastain mounting medium (Vector Labs). Fluorescence was visualized through the GFP filter on a Leica DM5000B fluorescent microscope and quantification performed using ImageJ.

The subject of a further assay is wild-type C57BL6/J mice. Put plainly: Cerulein-induced chronic pancreatitis model. Format: in vivo, mouse. The note with it: for inflammation and fibrosis: cerulein plus 40 μg/kg calcipotriol i.p. vs cerulein alone. On the procedure: Tissues were embedded in O.C.T. and frozen sections were fixed in ice-cold methanol at −20° C. for 20 min. Sections were blocked in PBS+0.2% BSA+0.05% Triton X-100 (blocking solution) for 1 h at room temperature. Primary antibody dilutions in blocking solution were as follows: anti-phospho-STAT3(Tyr705), 1:100 (Cell Signaling Technology); anti-Collagen I, 1:500 (Abcam), anti-GFAP, 1:100 (Abcam); anti-CD45, 1:100 (BD Pharmingen). Primary antibody incubations were performed in a humidified chamber at 4° C. overnight. Sections were washed 3 times with PBS+0.05% Triton X-100, then incubated in secondary antibodies for 1 h at room temperature, protected from light. Secondary antibodies used included Alexa Fluor 594 goat anti-rabbit IgG, Alexa Fluor 488 goat anti-rabbit IgG, Alexa Fluor 594 goat anti-rat IgG, and Alexa Fluor 488 goat anti-mouse IgG (Molecular Probes) and were used at 1:250 in blocking solution. Sections were washed 3 times with PBS and mounted using Vectastain mounting medium with or without DAPI. Fluorescence was visualized on a Leica DM5000B fluorescent microscope and quantified using ImageJ. Chronic pancreatitis was induced in wild-type C57BL6/J mice beginning at 8 weeks of age. Ten animals per cohort received intraperitoneal injections of saline, 50 μg/kg cerulein, or cerulein plus 40 μg/kg calcipotriol. Cerulein injections were administered as 6 hourly injections 2 times per week for 12 weeks and analyzed 1 week after final cerulein injection, adapted from previous studies (Sah et al., 2013; Treiber et al., 2011; Yoo et al., 2005). Calcipotriol injections were administered 3 times per week for the duration of the chronic pancreatitis study. For acute pancreatitis studies, 8-week-old wild-type or Vdr−/− mice received 6 hourly intraperitoneal injections of 50 μg/kg cerulein on days 1, 3, and 5, with or without single daily injections of 40 μg/kg calcipotriol. Mice were sacrificed on day 6. At necropsy, pancreata were harvested and digested for PSC isolation as described above, or prepared for histological analysis as described herein. Histological sections were cut from formalin-fixed tissues at 7 μm thickness Sirius Red/Fast Green staining (Chondrex) was performed per manufacturer's instructions. Images were obtained and quantification of Sirius Red-positive area performed using Nuance 3.0.1.2 software. Six independent fields were captured per sample.

The results in this text go back to patent US9895381B2, “Vitamin D receptor agonists to treat diseases involving CXCL12 activity” (Salk Institute for Biological Studies, priority 2013, dated 2018).

For the compound `C=C1/C(=C\C=C2/CCC[C@]3(C)[C@@H]([C@H](C)/C=C/[C@@H](O)C4CC4)CC[C@@H]23)C[C@@H](O)C[C@@H]1O` [Cal, 1α,24-(OH)2-24-cyclopropyl-D3], the “lipid droplet formation, primary patient samples” value in the assay with primary human CAPSCs is reported as 19/27. Moreover, the inflammation and fibrosis entry was “attenuated inflammation and fibrosis” in the assay with wild-type C57BL6/J mice; “markedly reduced inflammation and fibrosis” in the assay on wild-type C57BL6/J mice (listed as calcipotriol). The “Acta2 expression in isolated PSCs” value in the assay on wild-type C57BL6/J mice (cerulein+Cal 12 weeks) is on record as “trended downwards”. The phospho-Stat3 induction entry in the assay with wild-type C57BL6/J mice (cerulein+Cal 12 weeks) was “reduced induction of phospho-Stat3”. Also, the “expression of activation and cancer signature genes in isolated PSCs” value with wild-type C57BL6/J mice (cerulein+Cal 12 weeks vs controls) was “decreased”.
